From patent US5250735A, “2-(N-substituted-aminoalkyl)-5-(E)-alkylidene cyclopentanones, 2-(N-substituted-aminoalkyl)-5-(E)-arylalkylidene cyclopentanones, and derivatives thereof” (priority 1992, dated 1993)
Structures can show the parent of a compound that is named as a salt.

How the values were obtained:
[1] = system: 60 human tumor cell lines; conditions: 5-fluorouracil comparison value; cited from earlier work
[2] = system: 60 human tumor cell lines; assay: National Cancer Institute in vitro tumor cell screen; assay type: cell-based; design: key to Differential Cellular Sensitivity GI50, tumor cell line subpanels / Differential Cellular Sensitivity LC50, tumor cell line subpanels / Differential Cellular Sensitivity TGI, tumor cell line subpanels: LEU: Leukemia/lymphoma; LNS: Nonsmall cell lung; COL: Colon; MEL: Melanoma; OVA: Ovary; REN: Kidney; SCL: Small cell lung; conditions: for GI50 / LC50 / IC100: Homo sapiens, molar concentration, mean of all cell lines; for GI50: 50% inhibition of cell proliferation, read-out: Mean response of all cell lines (Log) GI50 (converted); for LC50: 50% of cell population killed, read-out: Mean response of all cell lines (Log) LC50 (converted); for IC100: 100% inhibition of cell proliferation, read-out: Mean response of all cell lines (Log) TGI (converted); for Differential Cellular Sensitivity GI50, tumor cell line subpanels: subpanels for GI50; for Differential Cellular Sensitivity LC50, tumor cell line subpanels: subpanels for LC50; for Differential Cellular Sensitivity TGI, tumor cell line subpanels: subpanels for TGI
Method: In the assay, a candidate compound was tested for its ability to inhibit tumor cell growth. A dose response curve of percent cell growth versus compound concentration over a concentration range of 10^-9 to 10^-4 molar of each test compound was established to determine GI50, TGI and LC50. GI50 and TGI denote that cell proliferation was inhibited by 50% and 100% respectively. LC50 denotes that 50% of cell population was killed. The selectivity of a compound towards a certain type of tumor cell line was evaluated from mean graphs which compared the relative drug concentrations required to produce the same level of response (e.g. GI50) in each cell line. A differential cellular sensitivity index was calculated by taking the difference between the logarithm of GI50 (or TGI, LC50) value for a cell line versus the arithmetic mean of the logarithm of GI50 (or TGI, LC 50) value for all cell line responses measured for a given compound.

[3] = literature; cited from earlier work
[4] = literature; cited from earlier work; remark: listed apart in the source
[5] = system: Ehrlich ascites carcinoma; assay: Antitumor effect on Ehrlich ascites carcinoma, survival; assay type: in vivo, ICR mice; conditions: 20 mg/kg/day intraperitoneal, 9 days
Method: Antitumor effect was measured on Ehrlich ascites carcinoma. Ehrlich ascites carcinoma cells were intraperitoneally administered to ICR mice. After 24 hours, 20 mg/kg/day of the compound whose synthesis is illustrated in Example 1 and Example 2 were each administered to the mice by intraperitoneal route for 9 days. The periods of survival of these animals were examined.

[6] = system: carrageenin-induced rat paw edema; assay: Carrageenin-induced rat paw edema (anti-inflammatory activity); assay type: in vivo, Wistar rats; conditions: paw volume at about 3 hours
Method: Anti-inflammatory activity was evaluated by examining the inhibitory activity of candidate compounds on carrageenin-induced rat paw edema according to a literature procedure [C. A. Winter, et al., Proc. Soc. Exp. Biol. Med. 111, 544 (1962)]. Test compounds were orally administered about 1 hour or subcutaneously injected about 0.5 hours before the injection of 100 microliters of a 1% suspension of carrageenin in saline into the subcutaneous tissues of the right hind paw of Wistar rats. The paw volumes were measured about 3 hours after carrageenin injection. The paw volumes were compared with that of a control group to give the percentage of inflammation inhibition. The results of these tests are shown in Table I. "Compound numbers" refer to compounds whose synthesis is illustrated in the corresponding Example number. The P values are the results of T-tests, which are well known to those skilled in the art.

[7] = system: acetic acid induced mouse writhes; assay: Acetic acid induced mouse writhes (analgesic activity); assay type: in vivo, mice; conditions: oral
Method: Analgesic activity was evaluated by a procedure similar to that described by Koster et al. [R. Koster, et al., Fed. Proc., 18, 412 (1959)]. About one hour after oral administration of test compounds to mice, 0.1 ml/10 g body weight of acetic acid was intraperitoneally injected. About five minutes later, the number of writhes of each mouse was counted for a period of about 20 minutes. The analgesic effect was manifested as a reduction in the number of writhes. "Compound numbers" refer to compounds whose synthesis is illustrated in the corresponding Example number. The P values are the results of T-tests, which are well known to those skilled in the art.

male mice = assay: Acute toxicity; conditions: mouse, in vivo
Method: (§1) The acute toxicity of one typical compound of this invention was measured by administering the compound to a group of 4 week old male mice.

Acute toxicity = conditions: mouse, in vivo, 4 week old male mice
Method: as §1

[8] = 25.0 mg/kg sc, about 0.5 hours before carrageenin
[9] = 50.0 mg/kg sc, about 0.5 hours before carrageenin
[10] = 96.0 mg/kg po, about 1 hour before carrageenin

| Compound | GI50 [2] | LC50 [2] | IC100 [2] | Differential Cellular Sensitivity GI50, tumor cell line subpanels [2] | Differential Cellular Sensitivity LC50, tumor cell line subpanels [2] | Differential Cellular Sensitivity TGI, tumor cell line subpanels [2] | further results |
| --- | --- | --- | --- | --- | --- | --- | --- |
| O=c1[nH]cc(F)c(=O)[nH]1 [5-fluorouracil] | – | – | – | – | – | – | mean log LC50 [1]: -3.5 |
| CC(C)=C1CCC(CN(C)C)C1=O.Cl (centres unmarked) [Compound 3, 2-Dimethylaminomethyl-5-(1-methylethylidene) cyclopentanone hydrochloride] | 19.1 µM | 67.6 µM | 40.7 µM | LEU | SCL | COL;LEU | – |
| CN(C)CCC1(C2=CCCC2)CC/C(=C\c2ccc(Cl)cc2)C1=O (centres unmarked) [Compound 13, 2-(1-Cyclopenten-1-yl)-2-dimethylaminoethyl-5-(E)-[(4-chloro)benzylidene]cyclopentanone hydrochloride] | 7.08 µM | 44.7 µM | 19.1 µM | MEL | MEL | MEL | – |
| C=C1C(=O)O[C@@H]2C[C@@H](C)[C@@H]3C=CC(=O)[C@@]3(C)[C@@H](O)[C@H]12 [Helenalin] | – | – | – | – | – | – | anticancer activity (in words) [3]: potent; anti-inflammatory activity (in words) [4]: potent |
| C[C@@H]1C[C@@H]2OC(=O)[C@]3(C)[C@H]2[C@@H](OC3(C)O)[C@]2(C)C(=O)C=C[C@@H]12 (some centres unmarked) [Tenulin] | – | – | – | – | – | – | anticancer activity (in words) [3]: potent; anti-inflammatory activity (in words) [4]: potent |
| CCCCCCC/C=C1\CCC(CN(C)C)C1=O.Cl (centres unmarked) [Compound 2, 2-Dimethylaminomethyl-5-(E)-octylidene cyclopentanone hydrochloride] | 5.13 µM | – | 12.3 µM | LEU;COL | COL;LNS;REN | COL;REN | average number of days of survival [5]: 33 ± 8.2 days; increase of life span (ILS %) over the control [5]: 112.0%; ratio of survival for more than 40 days [5]: 3/9 |
| CC(C)Cc1ccc(C(C)C(=O)O)cc1 (centres unmarked) [Ibuprofen, reference compound] | – | – | – | – | – | – | Inhibition of carrageenin induced rat paw edema [6, 8]: 72.9%; Inhibition of carrageenin induced rat paw edema ([6]; 52.0 mg/kg po, about 1 hour before carrageenin): 54.9% |
| CN(C)CC1CC/C(=C\c2ccccc2)C1=O.Cl (centres unmarked) [Compound 6, 2-Dimethylaminomethyl-5-(E)-benzylidene cyclopentanone hydrochloride] | – | – | – | – | – | – | Inhibition of carrageenin induced rat paw edema [6, 9]: 77.4% |
| COc1ccccc1/C=C1\CCC(Cc2ccccc2)(CN(C)C)C1=O.Cl (centres unmarked) [Compound 11, 2-Benzyl-2-dimethylaminomethyl-5-(E)-[(2-methoxy)benzylidene] cyclopentanone hydrochloride] | 2.19 µM | 83.2 µM | 25.1 µM | LEU;COL | COL | LEU | Inhibition of acetic acid induced mouse writhes ([7]; 96 mg/kg): 41.7%; Inhibition of carrageenin induced rat paw edema [6, 10]: 52.2% |
| C=C1C(=O)O[C@H]2C[C@@H](C)[C@@H]3C=CC(=O)[C@@]3(C)C[C@H]12 [Aromaticin] | – | – | – | – | – | – | anticancer activity (in words) [3]: potent; anti-inflammatory activity (in words) [4]: potent |
| COc1ccccc1/C=C1\CCC(CN2CCOCC2)C1=O.Cl (centres unmarked) [Compound 10, 2-Morpholinomethyl-5-(E)-[(2-methoxy)benzylidene]cyclopentanone hydrochloride] | 7.94 µM | 52.5 µM | 19.5 µM | LEU;COL | MEL;REN;OVA | LEU | – |
| O=C1/C(=C/c2ccc(O)cc2)CCC1CNc1ccc(Cl)cc1 (centres unmarked) [Compound 9, 2-[(4-Chlorophenyl)aminomethyl]-5-(E)-[(4-hydroxy)benzylidene] cyclopentanone] | 3.16 µM | 30.9 µM | 10 µM | COL;LEU;SCL | COL | LEU;SCL | – |
| CC(=O)Oc1ccccc1C(=O)O [Aspirin, reference compound] | – | – | – | – | – | – | Inhibition of acetic acid induced mouse writhes ([7]; 100 mg/kg): 46.7%; Inhibition of acetic acid induced mouse writhes ([7]; 200 mg/kg): 64.0% |
| CCCC/C=C1\CCC(CN(C)C)C1=O.Cl (centres unmarked) [Compound 1, 2-Dimethylaminomethyl-5-(E)-pentylidene cyclopentanone hydrochloride] | 1.58 µM | – | 3.8 µM | LEU;COL | COL;LNS;REN | COL;REN | average number of days of survival [5]: 41 ± 5.4 days; increase of life span (ILS %) over the control [5]: 173.8%; ratio of survival for more than 40 days [5]: 9/11; acute toxicity (in words) (male mice): low acute toxicity; LD50 (Acute toxicity; ip, intraperitoneal): 107 mg/kg; LD50 (Acute toxicity; iv, intraveneous): 52 mg/kg; LD50 (Acute toxicity; oral): 486 mg/kg |
| COc1ccccc1/C=C1\CCC(CN(C)C)C1=O.Cl (centres unmarked) [Compound 7, 2-Dimethylaminomethyl-5-(E)-[(2-methoxy)benzylidene] cyclopentanone hydrochloride] | 6.31 µM | 39.8 µM | 15.8 µM | LEU | COL | COL | Inhibition of carrageenin induced rat paw edema ([6]; 12.5 mg/kg sc, about 0.5 hours before carrageenin): 44.2%; Inhibition of carrageenin induced rat paw edema [6, 8]: 70.3%; Inhibition of carrageenin induced rat paw edema [6, 9]: 95.8% |
| CCOC(=O)COc1ccccc1/C=C1\CCC(CN(C)C)C1=O.Cl (centres unmarked) [Compound 4, 2-Dimethylaminomethyl-5-(E)-(2-ethoxycarbonylmethoxyl-benzylidene) cyclopentanone hydrochloride] | 6.31 µM | – | 15.8 µM | LEU | CNS;LNS;MEL | LEU | – |
| CC(/C=C1\CCC(CN(C)C)C1=O)c1cccc(Br)c1.Cl (centres unmarked) [Compound 5, 2-Dimethylaminomethyl-5-(E)-[2-(3-bromophenyl)propylidene] cyclopentanone hydrochloride] | 12.6 µM | 63.1 µM | 27.5 µM | LEU | CNS;OVA | LEU | – |
| COc1ccc(/C=C2\CCC(Cc3ccccc3)(CN(C)C)C2=O)cc1.Cl (centres unmarked) [Compound 12, 2-Benzyl-2-dimethylaminomethyl-5-(E)-[(4-methoxy)benzylidene] cyclopentanone hydrochloride] | 35.5 µM | – | 77.6 µM | COL;MEL | SCL | LEU;SCL | Inhibition of acetic acid induced mouse writhes ([7]; 48 mg/kg): 45.6%; Inhibition of acetic acid induced mouse writhes ([7]; 96 mg/kg): 86.6%; Inhibition of carrageenin induced rat paw edema [6, 10]: 57.3% |
| CN(C)CC1CC/C(=C\c2ccc(O)cc2)C1=O.Cl (centres unmarked) [Compound 8, 2-Dimethylaminomethyl-5-(E)-[(4-hydroxy)benzylidene] cyclopentanone hydrochloride] | 4.27 µM | – | 10.7 µM | COL;LEU | CNS;REN;SCL | LEU | Inhibition of carrageenin induced rat paw edema [6, 9]: 95.9% |
